For 14 compounds, IC50 and melting point results are on record in patent publication US7968556B2, “Heteroaryl compounds, compositions thereof, and methods of treatment therewith” (Signal Pharmaceuticals, LLC, priority 2006, dated 2011).

Bounds are passed on as bounds.

Data set [1] has as its target T1, IKK-2 (Homo sapiens, UniProt O14920, S177E/S181E).
T1 sequence (O14920 1-756 S177E/S181E): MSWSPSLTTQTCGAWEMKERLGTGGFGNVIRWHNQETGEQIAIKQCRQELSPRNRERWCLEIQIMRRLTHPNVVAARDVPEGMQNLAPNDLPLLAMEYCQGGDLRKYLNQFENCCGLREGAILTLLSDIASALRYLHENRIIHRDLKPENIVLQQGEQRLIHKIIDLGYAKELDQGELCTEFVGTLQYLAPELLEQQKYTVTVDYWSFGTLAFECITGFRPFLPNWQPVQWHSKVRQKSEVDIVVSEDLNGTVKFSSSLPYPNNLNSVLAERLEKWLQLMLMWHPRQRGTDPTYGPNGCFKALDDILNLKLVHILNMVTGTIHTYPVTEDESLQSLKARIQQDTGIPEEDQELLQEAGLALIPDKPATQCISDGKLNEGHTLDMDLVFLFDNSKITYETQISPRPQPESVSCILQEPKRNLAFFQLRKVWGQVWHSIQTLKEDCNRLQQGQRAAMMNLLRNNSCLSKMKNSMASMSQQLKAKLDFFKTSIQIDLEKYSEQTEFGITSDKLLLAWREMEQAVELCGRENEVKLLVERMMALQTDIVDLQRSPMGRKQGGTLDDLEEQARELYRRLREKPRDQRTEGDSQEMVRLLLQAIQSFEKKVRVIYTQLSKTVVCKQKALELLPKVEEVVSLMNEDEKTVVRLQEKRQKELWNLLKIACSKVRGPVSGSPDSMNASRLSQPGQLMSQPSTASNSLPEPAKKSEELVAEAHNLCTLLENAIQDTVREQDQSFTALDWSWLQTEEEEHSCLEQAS
The experiment in a line: IKK-2 screening assay (IKK2EE 33P Assay / IKK2EE NEMO HTRF Assay). The format is biochemical. How it is done: The following is an example of an assay that can be used to determine the IKK2EE inhibitory activity of a test compound.
A reaction buffer (pH 7.8) is prepared containing HEPES (20 mM), MgCl2 (10 mM), EDTA (0.1 mM), DTT (1 mM) and Triton X-100 (0.004%). IKK2EE (0.75 μg/ml is used. GST-IKBα (50 μg/ml) is used as substrate. Adenosine 5′-triphosphate (1.5 μM with ^33P-ATP 5 nCi/μl) is used. Reactions are stopped with trichloroacetic acid (6.25%).
Appropriate amounts of test compounds or controls in 100% DMSO are added to the assay plate. A peptide-substrate solution (PSS) is prepared by adding peptide stock to an appropriate volume of buffer (peptide concentration in the PSS will be about 100 μg/ml). An enzyme-peptide solution (EPS) is prepared by adding enzyme stock to an appropriate volume of PSS (the enzyme concentration in the EPS will be about 1 μg/ml). An ATP solution is prepared by adding ATP stock to an appropriate volume of buffer (the ATP concentration will be 15 μM).
85 μl of EPS is added to the assay wells (or PSS to positive control wells) of 96 well polypropylene plates. The ATP solution is then completed by adding ^33P-ATP (to a final concentration of 50 μCi/ml).
The reaction is initiated by adding 10 μl ATP solution to each well. Plates are shaken from about 12 seconds and allowed to incubate at room temperature for 1 hours. 100 μl of trichloroacetic acid solution (12.5%) is added to stop the reaction and the plates are incubated at room temperature for at least 10 minutes. The assay plates are harvested onto a Millipore Multiscreen harvest Plate FC using an appropriate harvester and the harvest plates are washed with 1×PBS solution for about 10 seconds (continuous flow). Harvest plates are allowed to dry thoroughly and the bottoms of the plates are sealed. 20-50 μl of Microscint20 is added to each well, tops are sealed and plates are read using an appropriate scintillation counter.
A reaction buffer (pH 7.6) is prepared containing HEPES (20 mM), MgCl2 (10 mM), EDTA (0.05 mM), DTT (1 mM) and Triton X-100 (0.004%). IKK2EE-NEMO (0.7 μg/ml is used. GST-IKBα (0.5 μg/ml) is used as substrate. Adenosine 5′-triphosphate (1.5 μM) is used. Detection reagents used are mouse anti-P-IKBα (30 ng/ml), Eu anti-mouse (300 ng/ml) and Cy5 anti-GST (11.5 μg/ml). Reactions are stopped with EDTA (20 mM).
An enzyme solution (ES) is prepared by adding enzyme stock to an appropriate volume of buffer (enzyme concentration in the ES will be about 1.7 ng/ml). A detection mixture (DM) is prepared by adding ATP (final conc. 3.75 μM), mouse anti-P-IKBα (final conc. 75 ng/ml), GST-IKBα (final conc. 1.26 μg/ml), Eu anti-mouse in buffer (final conc. 750 ng/ml).
5 μl of compound (solvated in 10% DMSO) is added to assay wells (or 10% DMSO to control wells) of low binding reaction plates. […] ES is added to assay wells (or buffer to control wells) and the reaction is initiated by adding 10 μl DM to all wells. Plates are incubated at room temperature for 45 minutes. Stop mixture is prepared by adding EDTA (final conc. 70 mM) and Cy5 anti-GST (final conc. 40 μg/ml) to an appropriate volume of buffer. Stop mixture is added and plates are shaken for 20 seconds and incubated at room temperature for at least 3 hours (preferably in the dark). Plates are read on an Analyst HT using Multi-Method HTRF.

Data set [2] has as its target mTOR (Homo sapiens, UniProt P42345). The experiment in a line: mTOR HTR-FRET Assay. The data set is classed as biochemical. How it is done: The following is an example of an assay that can be used to determine the mTOR inhibitory activity of a test compound. Reagents are prepared as follows:
“Simple TOR buffer” (used to dilute high glycerol TOR fraction): 10 mM Tris pH 7.4, 10 mM NaCl, 0.1% Tween-20, 1 mM DTT (from 1M stock frozen at −20° C. just prior to use). For convenience a large quantity of “Simple TOR buffer” w/o DTT can be stored at 4° C. It can be brought to room temperature and DTT added just prior to dilution of TOR fraction.
5XKB/5XMn/5×ATP solution (used to dilute substrate GST-p70S6kin 81 a.a. just prior to use) (40 ml screen quantity shown):
Enzyme solution: Dilute TOR fraction 1:14 in “Simple TOR Buffer”. For current lot that is 640 μg/ml TOR fraction diluted 14× to yield 45.7 μg/ml TOR in buffer (i.e. 7.85 ml TOR pooled fraction+102.1 ml Simple TOR buffer=110 ml 14× diluted TOR fraction). Each Enzyme Lot must be QC'd prior to assay.
Substrate solution: This may be prepared just prior to assay if preferred. Dilute 5.3 mg/ml GST-p70S6kinase fragment stock to 3.5 μg/ml (97 nM) working stock in 5XKB/5XMn/5×ATP solution (i.e. 26.41 μL (5.3 mg/ml) GST-p70S6+40 ml 5XKB/5XMn/5×ATP=40 ml 3.5 μg/ml (97 nM)).
Assay Buffer (for dilution of Antibodies used in Antibody Detection Reagent):
Antibody Detection Reagent (this reagent should be made just prior to addition to Assay Plates):
Using PlateTrak program (Screen) or Matrix Pipettor (SAR), 19.5 μL of diluted TOR fraction is added to assay plate in all test, reference or positive control wells. 19.5 μL of “Simple TOR buffer” is added to all negative control wells. If treating multiple plates with the same compounds, can increase volume of enzyme to multiples of 19.5 μL in a tall 384 well polypropylene plate.
Using EP3, 0.5 μl of test, reference or control DMSO is added to each well with mixing. Plates are incubated for 30 minutes at room temperature.
Using PlateTrak program (Screen) or Matrix Pipettor (SAR) 5 μL of 5XKB/5XMn/5×ATP/5× substrate solution is added to each well of the assay plate to start the reaction. The solutions are mixed well and incubated for 2 hours at room temperature.
Using PlateTrak program (Screen) or Matrix Pipettor (SAR) 5 μL of 60 mM EDTA is added to stop the reaction. The solutions are mixed well and allowed to sit for 15-20 minutes before the next step.
Using PlateTrak program (Screen) or Matrix Pipettor (SAR) 10 μl of Antibody Detection Reagent is added. The solutions are mixes well and incubated for 5 hours to O/N to allow antibodies to form complexes with phosphorylated substrate.
Plates are read on AnalystHT using protocol Multi-Method protocol.

Turning to `NC(=O)c1nc(-c2cccnc2)nc2c1[nH]c(=O)n2Cc1ccccc1` [Compound 1, 9-benzyl-8-oxo-2-(pyridin-3-yl)-8,9-dihydro-7H-purine-6-carboxamide], the melting point was 334 to 335 °C. This compound also yielded an IC50 in data set [1] of more than 30 µM. Besides, the IC50 in data set [2] was 10.1 to 20 µM.

With `CNC(=O)c1nc(-c2cccnc2)nc2c1[nH]c(=O)n2-c1ccccc1` [Compound 2, N-methyl-8-oxo-9-phenyl-2-(pyridin-3-yl)-8,9-dihydro-7H-purine-6-carboxamide], the melting point was more than 330 °C. This compound also registered an IC50 in data set [1] of more than 30 µM. For the same compound, the IC50 in data set [2] was more than 30 µM.

For the compound `NC(=O)c1nc(-c2ccccn2)nc2c1[nH]c(=O)n2-c1ccccc1` [Compound 3, 8-oxo-9-phenyl-2-(pyridin-2-yl)-8,9-dihydro-7H-purine-6-carboxamide], the melting point was in the range of 347 to 349 °C. In data set [1], this compound yielded an IC50 of 20.1 to 30 µM.

The compound `NC(=O)c1nc(-c2cccnc2Cl)nc2c1[nH]c(=O)n2-c1ccccc1` [Compound 4, 2-(2-chloropyridin-3-yl)-8-oxo-9-phenyl-8,9-dihydro-7H-purine-6-carboxamide] registered a melting point of 283 to 286 °C. The compound further showed an IC50 in data set [1] of more than 30 µM. Further, the IC50 in data set [2] is more than 30 µM.

Consider `COc1ncccc1-c1nc(C(N)=O)c2[nH]c(=O)n(-c3ccccc3)c2n1` [Compound 5, 2-(2-methoxypyridin-3-yl)-8-oxo-9-phenyl-8,9-dihydro-7H-purine-6-carboxamide], for which the melting point lay within 279 to 281 °C. Moreover, in data set [1], the IC50 is more than 30 µM. Besides, in data set [2], the 50% inhibitory concentration (IC50) was more than 30 µM.

As for `Cn1c(=O)[nH]c2c(C(N)=O)nc(-c3cccnc3)nc21` [Compound 7, 9-methyl-8-oxo-2-(pyridin-3-yl)-8,9-dihydro-7H-purine-6-carboxamide], the melting point was more than 350 °C. The compound also came in with an IC50 in data set [1] of more than 30 µM.

Consider `NC(=O)c1nc(-c2cccc(O)c2)nc2c1[nH]c(=O)n2-c1ccccc1F` [Compound 15, 9-(2-fluorophenyl)-2-(3-hydroxyphenyl)-8-oxo-8,9-dihydro-7H-purine-6-carboxamide], for which the half-inhibitory concentration (IC50) in data set [1] is more than 30 µM; in data set [2] it was 0.1 to 5 µM.

On to `COc1ccccc1-n1c(=O)[nH]c2c(C(N)=O)nc(-c3cccc([N+](=O)[O-])c3)nc21` [Compound 26, 9-(2-methoxyphenyl)-2-(3-nitrophenyl)-8-oxo-8,9-dihydro-7H-purine-6-carboxamide], for which the melting point was in the range of 295 to 296 °C. This compound returned a 50% inhibitory concentration (IC50) in data set [2] of more than 30 µM.

`NC(=O)c1nc(-c2cccc(O)c2)nc2c1[nH]c(=O)n2-c1cccc(F)c1` [Compound 28, 9-(3-fluorophenyl)-2-(3-hydroxyphenyl)-8-oxo-8,9-dihydro-7H-purine-6-carboxamide] yielded a melting point of more than 375 °C. The half-maximal inhibitory concentration (IC50) in data set [2] was more than 30 µM.

`COc1ccccc1-n1c(=O)[nH]c2c(C(N)=O)nc(-c3ccccc3C(F)(F)F)nc21` [Compound 29, 9-(2-methoxyphenyl)-8-oxo-2-(2-(trifluoromethyl)phenyl)-8,9-dihydro-7H-purine-6-carboxamide] displayed a melting point of 237 to 240 °C. This compound also yielded an IC50 in data set [2] of more than 30 µM.

In the case of `NC(=O)c1nc(-c2cccnc2)nc2c1[nH]c(=O)n2C1CCN(C(=O)OCc2ccccc2)CC1` [Compound 32, benzyl 4-(6-carbamoyl-8-oxo-2-(pyridin-3-yl)-7H-purin-9(8H)-yl)piperidine-1-carboxylate], the IC50 in data set [1] lay within 10.1 to 20 µM; in data set [2], 0.1 to 5 µM.

For the compound `NC(=O)c1nc(-c2cccc(O)c2)nc2c1[nH]c(=O)n2C1CCCCC1` [Compound 33, 9-cyclohexyl-2-(3-hydroxyphenyl)-8-oxo-8,9-dihydro-7H-purine-6-carboxamide], the results for the IC50 in data set [1] and in data set [2] were more than 30 µM and 0.1 to 5 µM, respectively.

`COc1ccccc1-n1c(=O)[nH]c2c(C(N)=O)nc(-c3cccc(OC(F)(F)F)c3)nc21` [Compound 34, 9-(2-methoxphenyl)-8-oxo-2-(3-(trifluoromethoxy)phenyl)-8,9-dihydro-7H-purine-6-carboxamide] gave a melting point of 269 to 272 °C. In addition, the IC50 in data set [2] is more than 30 µM.

Consider `COc1ccccc1-n1cnc2c(C(N)=O)nc(-c3cccc(O)c3)nc21` [Compound 39, 2-(3-hydroxyphenyl)-9-(2-methoxyphenyl)-9H-purine-6-carboxamide], for which the melting point fell in the range of 257 to 259 °C. Further, the IC50 in data set [2] lay in the range of 10.1 to 20 µM.
